“And” between values parts separate entries of the source, which are not always exact repeats. Identical values can stand only once. Like-named read-outs stand apart in the source and are kept apart here.
Assays:
Assay type in all cases: cell-based, human
[1] = test system: senescent IMR90 ER:RAS cells (4-OHT-induced); experiment: Nuclei count (Hoechst, high content imaging) senolytic assay, oncogene-induced senescence (OIS) model, senescent cells
Method in brief: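 Cells seeded, left 24 h, then dosed across a 10-point […] series (10 μM down to 10 nM) with DMSO control. After 72 h, wells were fixed, permeabilised and stained with Hoechst. Nuclei were counted by high-content imaging in senescent and non-senescent IMR90 ER:RAS cultures.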

[2] = test system: A549 cells treated with 100 μM etoposide; experiment: Cell survival assay using crystal violet staining, TIS, senescent cells
Description: Equal numbers of control and senescent cells were plated at high density on multiwell plates just before senolytic treatment addition. After treatment, cells were fixed on 0.5% glutaraldehyde (Sigma) and then dried at RT overnight. Then, wells were stained with crystal violet solution for 3 h, washed and dried. Once they were completely dry, the plates were scanned for records. Quantification was performed extracting the staining with 1% acetic acid and measuring the final solution by absorbance at 595 nm. […]
cells per condition is indicated. (d) Cell survival assay measuring the senolytic effect in lung cancer senescent cells. The panels show a representative crystal violet staining of tissue culture dishes of confluent A549 cells treated with 100 μM etoposide and control A549 cells, all treated with 10 nM oleandrin, ouabain and periplocin, and DMSO as vehicle control for 72 hours as indicated. (e) Graph representing the cell survival by quantification of the crystal violet staining of the experiment described in (d), as described in Methods. Data represented as individual datapoints, and bars and error bars representing the mean ± SEM of 14 independent experiments. Statistical analysis was performed using a one-way ANOVA (Tukey’s test) for multiple comparisons. […]
Scale bars represent 100 μm. ns = not significant, * = p < 0.05, ** = p < 0.01, *** = p < 0.001, **** = p < 0.0001. Source data are provided as a Source Data file.

[3] = test system: Na+/K+ ATPase pump (intracellular K+) in IMR90 cells at passage 27; experiment: Intracellular K+ determination with Asante staining, replicative senescence
Description: Cells were cultured for control and senescent phenotype and then treated with the senolytics oleandrin, ouabain and periplocin at 10 nM for 72 h. Asante (Asante Potassium Green-2 AM, abcam ab142806) was added to the culture 30 min before fixation, following manufacturer instructions. DAPI staining was done before image acquisition on Nikon TI2 microscope (20x). Image analysis was performed using ImageJ 1.53k for setting intensity threshold and measuring mean intensity.

CO[C@H]1C[C@H](O[C@H]2CC[C@@]3(C)[C@H](CC[C@@H]4[C@@H]3CC[C@]3(C)[C@@H](C5=CC(=O)OC5)[C@@H](OC(C)=O)C[C@]43O)C2)O[C@@H](C)[C@@H]1O [Oleandrin, oleandrin]
viability at 10 µM ([1]; Homo sapiens, IMR-90, 72 h, Senescent, log (dose) [M] -5, 72 h, mean n=3 (Fig 3C), read-out: Mean % Cell Survival): 2.6%
viability at 4.677 µM ([1]; Homo sapiens, IMR-90, 72 h, Senescent, log (dose) [M] -5.33, 72 h, mean n=3 (Fig 3C), read-out: Mean % Cell Survival): 4.06%
viability at 2.188 µM ([1]; Homo sapiens, IMR-90, 72 h, Senescent, log (dose) [M] -5.66, 72 h, mean n=3 (Fig 3C), read-out: Mean % Cell Survival): 5.74%
viability at 1 µM ([1]; Homo sapiens, IMR-90, 72 h, Senescent, log (dose) [M] -6, 72 h, mean n=3 (Fig 3C), read-out: Mean % Cell Survival): 4.49%
viability at 0.4677 µM ([1]; Homo sapiens, IMR-90, 72 h, Senescent, log (dose) [M] -6.33, 72 h, mean n=3 (Fig 3C), read-out: Mean % Cell Survival): 5.02%
viability at 0.2188 µM ([1]; Homo sapiens, IMR-90, 72 h, Senescent, log (dose) [M] -6.66, 72 h, mean n=3 (Fig 3C), read-out: Mean % Cell Survival): 3.64%
viability at 0.1 µM ([1]; Homo sapiens, IMR-90, 72 h, Senescent, log (dose) [M] -7, 72 h, mean n=3 (Fig 3C), read-out: Mean % Cell Survival): 3.83%
viability at 0.04677 µM ([1]; Homo sapiens, IMR-90, 72 h, Senescent, log (dose) [M] -7.33, 72 h, mean n=3 (Fig 3C), read-out: Mean % Cell Survival): 6.59%
viability at 0.02188 µM ([1]; Homo sapiens, IMR-90, 72 h, Senescent, log (dose) [M] -7.66, 72 h, mean n=3 (Fig 3C), read-out: Mean % Cell Survival): 13.4%
viability at 0.01 µM ([1]; Homo sapiens, IMR-90, 72 h, Senescent, log (dose) [M] -8, 72 h, mean n=3 (Fig 3C), read-out: Mean % Cell Survival): 87.9%
viability at 10 µM ([1]; Homo sapiens, IMR-90, senescence, log (dose) [M] -5, individual replicates (Fig 3D), read-out: % Cell Survival): 3.12%
viability at 4.677 µM ([1]; Homo sapiens, IMR-90, senescence, log (dose) [M] -5.33, individual replicates (Fig 3D), read-out: % Cell Survival): 4.77%
viability at 2.188 µM ([1]; Homo sapiens, IMR-90, senescence, log (dose) [M] -5.66, individual replicates (Fig 3D), read-out: % Cell Survival): 7.52%
viability at 1 µM ([1]; Homo sapiens, IMR-90, senescence, log (dose) [M] -6, individual replicates (Fig 3D), read-out: % Cell Survival): 5.5%
viability at 0.4677 µM ([1]; Homo sapiens, IMR-90, senescence, log (dose) [M] -6.33, individual replicates (Fig 3D), read-out: % Cell Survival): 4.4%
viability at 0.2188 µM ([1]; Homo sapiens, IMR-90, senescence, log (dose) [M] -6.66, individual replicates (Fig 3D), read-out: % Cell Survival): 4.04%
viability at 0.1 µM ([1]; Homo sapiens, IMR-90, senescence, log (dose) [M] -7, individual replicates (Fig 3D), read-out: % Cell Survival): 4.95%
viability at 0.02188 µM ([1]; Homo sapiens, IMR-90, senescence, log (dose) [M] -7.66, individual replicates (Fig 3D), read-out: % Cell Survival): 12.3%
IC50 ([1]; Homo sapiens, IMR-90, OIS model, 4-OHT-induced IMR90 ER:RAS, nuclei count, 72 h): 0.014 µM
dose showing the clearest / optimal senolytic effect ([1]; OIS IMR90 ER:RAS, Hoechst nuclei count, marginal effect on normal cells): 21.5 nM
senolytic activity (in words) ([1]; experimental screen, OIS IMR90 ER:RAS): clear senolytic action
senolytic index (SI) ([1]; ratio between the IC50 of control cells and the IC50 of senescent cells, OIS IMR90 ER:RAS): 5.8
cellular content in senescent cultures (crystal violet), in words ([2]; A549 TIS with etoposide, 10 nM, 72 h): significant reduction in cellular content
% Cell Survival ([2]; Etoposide-treated (senescent) cells, Control DMSO = 100, single replicates (SUP FIG 9E)): 39.4% and 53.4% and 51.6% and 7.8% and 48.5% and 38.4% and 46.7% and 32.6% and 33.1% and 7.9% and 36.2% and 37.5% and 30.5% and 41.5%
Asante Mean intensity ([3]; Replicative Senescence cells, individual replicate values): 145.1 and 146.6 and 146 and 145.5 and 145.6
Asante Mean intensity, group mean (Test details, Mean 2) ([3]; Replicative Senescence cells, mean of n=6): 145.7
K+ intracellular concentration, in words ([3]; replicative senescence IMR90, 10 nM, 72 h): significantly reduced

Reference: PMC10257182, “Discovery of senolytics using machine learning” (Nature Communications, 2023)
